# Reference: patent publication US5528046A, “Method and device for determining the location and number of fluorescent molecules” (Hamamatsu Photonics K.K., priority 1992, dated 1996)
# Experiments:
# [1] = molecular target: streptavidin (SA), tetramer (Streptomyces avidinii, UniProt P22629); details: cited from earlier work
# bovine serum albumin = bovine serum albumin (Bos taurus, UniProt P02769); assay: Affinity of bovine serum albumin for FLB (FLB absorption spectrum); type: binding; details: causes no changes to FLB spectrum
# bovine serum albumin, sequence (P02769 25-607): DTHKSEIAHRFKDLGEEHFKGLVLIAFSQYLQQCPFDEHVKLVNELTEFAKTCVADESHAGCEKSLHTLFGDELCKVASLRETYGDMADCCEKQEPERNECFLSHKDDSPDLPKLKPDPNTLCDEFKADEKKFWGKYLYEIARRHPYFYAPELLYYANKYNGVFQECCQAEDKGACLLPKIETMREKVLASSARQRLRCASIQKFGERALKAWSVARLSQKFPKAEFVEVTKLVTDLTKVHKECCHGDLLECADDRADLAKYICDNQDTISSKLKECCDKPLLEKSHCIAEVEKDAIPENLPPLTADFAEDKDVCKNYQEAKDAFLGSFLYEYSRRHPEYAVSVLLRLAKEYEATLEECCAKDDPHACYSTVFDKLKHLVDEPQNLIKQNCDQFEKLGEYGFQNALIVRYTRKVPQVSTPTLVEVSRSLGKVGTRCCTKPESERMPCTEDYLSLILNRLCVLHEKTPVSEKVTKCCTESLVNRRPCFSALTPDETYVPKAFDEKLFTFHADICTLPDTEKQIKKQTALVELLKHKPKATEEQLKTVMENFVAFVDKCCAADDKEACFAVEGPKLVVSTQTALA
# From the text: Foster and Konig report that is has been found based on changes of absorption spectra of some organic dye molecules (fluorescent molecules) containing a fluorescent substrate in water that the organic dye molecules form dimers at high concentration (10^-3 -10^-1 M). Koizumi and Mataga report a change of absorption spectrum in an aqueous solution containing fluorescent molecules in the presence of electrolytic polymers. Based on these studies, it is considered that changes of the spectra are caused by the cohesive effect of the fluorescent molecules to the polymers. Considering these past studies and the bonding between SA and B due to their high affinity, it is considered that similarly sufficient local adhesion effects of FLB to SA can be present. This is further optical evidence of the interaction between SA and FLB. For example, bovine serum albumin, which has no affinity with FLB, causes no changes to FLB spectrum.
# streptavidin (SA), tetramer, sequence (P22629 25-183): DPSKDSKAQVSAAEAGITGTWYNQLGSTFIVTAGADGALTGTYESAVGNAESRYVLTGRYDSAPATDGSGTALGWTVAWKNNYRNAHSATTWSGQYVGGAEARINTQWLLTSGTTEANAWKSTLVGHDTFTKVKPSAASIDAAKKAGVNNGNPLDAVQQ
SMILES,lifetime of the SA/B complex [1],affinity with FLB (bovine serum albumin)
"O=C(O)CCCC[C@@H]1SC[C@@H]2NC(=O)N[C@@H]21 [B, biotin]",about 2.9 days,
"O=C(CCCCCNC(=O)CCCC[C@@H]1SC[C@@H]2NC(=O)N[C@@H]21)NCCCCCNC(=S)Nc1ccc2c(c1)C(=O)OC21c2ccc(O)cc2Oc2cc(O)ccc21 [FLB, fluorescein biotin]",,no affinity
